In ChEMBL document CHEMBL1201862, “PubChem BioAssay data set” (2004):
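Results reflect a 48-hour exposure of cells in 96-well plates to compound at five concentrations. At the GI50, growth is halved.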 Active and inactive are the calls of the source. Cut-off read from the data, not from the text of the source: active = GI50 up to about 1.1 µM and inactive = higher.

How the values were obtained:
Assay in all cases: DTP human tumour cell line panel, 48 h
[1] = test system: M14
[2] = test system: DLD-1
[3] = test system: ACHN
[4] = test system: 786-0
[5] = test system: IGROV-1
[6] = test system: EKVX
[7] = test system: SNB-78
[8] = test system: RPMI-8226
[9] = test system: HCT-15
[10] = test system: M19-MEL
[11] = test system: A549
[12] = test system: UACC-257
[13] = test system: NCI-H460
[14] = test system: LXFL 529
[15] = test system: SK-MEL-28
[16] = test system: RXF 631
[17] = test system: SK-OV-3
[18] = test system: HOP-92
[19] = test system: SNB-19
[20] = test system: CAKI-1
[21] = test system: SF-539
[22] = test system: OVCAR-8
[23] = test system: COLO 205
[24] = test system: OVCAR-4
[25] = test system: SF-268
[26] = test system: U-251
[27] = test system: DMS-273
[28] = test system: A498
[29] = test system: HT-29
[30] = test system: OVCAR-3
[31] = test system: SN12C
[32] = test system: MOLT-4
[33] = test system: TK-10
[34] = test system: UO-31
[35] = test system: XF498
[36] = test system: K562
[37] = test system: HCC 2998
[38] = test system: SK-MEL-2
[39] = test system: HL-60
[40] = test system: DMS-114
[41] = test system: NCI-H23
[42] = test system: SF-295
[43] = test system: KM-20L2
[44] = test system: HCT-116
[45] = test system: Malme-3M
[46] = test system: SW-620
[47] = test system: UACC-62
[48] = test system: NCI-H226
[49] = test system: OVCAR-5
[50] = test system: NCI-H522
[51] = test system: HOP-18
[52] = test system: KM12
[53] = test system: LOX IMVI
[54] = test system: CCRF-CEM
[55] = test system: HOP-62
[56] = test system: SNB-75
[57] = test system: RXF 393
[58] = test system: SK-MEL-5

Measured: GI50

COC(=O)C1=C(C)N(NC(N)=O)C2(N)N(NC(N)=O)C(C)=C(C(=O)OC)C12C(=O)OC (configuration not stated)
> 100 µM: [9]
inactive: [1] > 100 µM | [2] > 100 µM | [3] > 100 µM | [4] > 100 µM | [5] > 100 µM | [6] > 100 µM | [7] > 100 µM | [8] > 100 µM | [10] > 100 µM | [11] > 100 µM | [12] > 100 µM | [13] > 100 µM | [14] > 100 µM | [15] > 100 µM | [16] > 100 µM | [17] > 100 µM | [18] > 100 µM | [19] > 100 µM | [20] > 100 µM | [21] > 100 µM | [22] > 100 µM | [23] > 100 µM | [24] > 100 µM | [25] > 100 µM | [26] > 100 µM | [27] > 100 µM | [28] > 100 µM | [29] > 100 µM | [30] > 10 µM | [31] > 100 µM | [32] > 100 µM | [33] > 100 µM | [34] > 100 µM | [35] > 100 µM | [36] > 100 µM | [37] > 100 µM | [38] > 100 µM | [39] > 100 µM | [40] > 100 µM | [41] > 100 µM | [42] > 10 µM | [43] > 100 µM | [44] > 100 µM | [45] > 100 µM | [46] > 100 µM | [47] > 100 µM | [48] > 100 µM | [49] > 100 µM | [50] > 100 µM | [51] > 100 µM | [52] > 10 µM | [53] > 100 µM | [54] > 100 µM | [55] > 100 µM

Cn1cc(NC(=O)c2cc(NC(=O)CCCCCC(=O)Nc3cc(C(=O)Nc4cc(C(=O)NCCC(=N)N)n(C)c4)n(C)c3)cn2C)cc1C(=O)NCCC(=N)N
inactive: [1] > 100 µM | [2] > 100 µM | [3] > 100 µM | [4] > 100 µM | [5] 98.6 µM | [6] > 100 µM | [7] > 100 µM | [10] 15.2 µM | [11] 45.3 µM | [12] 27.2 µM | [13] 26.4 µM | [14] > 100 µM | [15] 25.2 µM | [16] > 100 µM | [17] > 100 µM | [56] > 100 µM | [18] > 100 µM | [19] > 100 µM | [20] > 100 µM | [21] > 100 µM | [22] > 100 µM | [23] > 100 µM | [24] > 100 µM | [25] > 100 µM | [26] > 100 µM | [27] 67.3 µM | [28] > 100 µM | [29] > 100 µM | [30] > 100 µM | [31] > 100 µM | [33] > 100 µM | [34] > 100 µM | [35] > 100 µM | [36] 83.6 µM | [37] > 100 µM | [39] 30 µM | [40] 33 µM | [57] > 100 µM | [41] > 100 µM | [42] > 100 µM | [43] > 100 µM | [44] 67.1 µM | [45] 9.64 µM | [46] > 100 µM | [47] 64.9 µM | [58] 51.3 µM | [49] > 100 µM | [51] > 100 µM | [52] 73.8 µM | [53] 46.1 µM | [54] > 100 µM
> 100 µM: [9]
